Experimental data published in the NIST ThermoML archive (doi:10.1021/je030177j).

Assay: mn = molality of the nth substance listed, in mol/kg
Conditions: Liquid, Capillary tube (Ostwald / Ubbelohde) method

O=S(=O)([O-])[O-].[Li+].[Li+] [lithium sulfate] + O
viscosity [mPa·s]
Conditions	10000 kPa	20000 kPa	30000 kPa
415.76 K, m1 = 0.885	–	–	0.2944
417.42 K, m1 = 0.28	0.2175	0.2199	0.2227
418.18 K, m1 = 0.56	0.2443	0.2469	0.2497
420.67 K, m1 = 0.1	0.198	0.201	0.2031
423.55 K, m1 = 0.28	0.208	0.2106	0.2133
424.05 K, m1 = 0.885	0.2687	0.2721	0.2756
424.55 K, m1 = 0.56	0.233	0.2359	0.239
430.26 K, m1 = 0.885	0.2564	0.2601	0.264
430.73 K, m1 = 0.28	0.1975	0.1999	0.2024
431.72 K, m1 = 0.1	0.1829	0.1849	0.1871
431.83 K, m1 = 0.56	0.2212	0.2231	0.2251
437.24 K, m1 = 0.56	0.213	0.2154	0.2185
439.37 K, m1 = 0.885	0.2402	0.244	0.2479
440.04 K, m1 = 0.28	0.1858	0.1885	0.191
446.35 K, m1 = 0.56	0.2	0.203	0.206
449.15 K, m1 = 0.885	0.2248	0.2283	0.2318
449.35 K, m1 = 0.28	0.175	0.1776	0.1803
449.55 K, m1 = 0.1	0.163	0.1654	0.168
452.17 K, m1 = 0.56	0.1927	0.1957	0.1984
458.12 K, m1 = 0.885	0.2109	0.2139	0.2179
458.17 K, m1 = 0.28	0.1658	0.1682	0.1704
459.12 K, m1 = 0.56	0.1843	0.1878	0.19
459.89 K, m1 = 0.1	0.1532	0.1553	0.1577
462.13 K, m1 = 0.28	0.162	0.1649	0.1674
466.79 K, m1 = 0.885	0.2003	0.2038	0.2071
468.13 K, m1 = 0.56	0.175	0.1787	0.1813
468.74 K, m1 = 0.28	0.1558	0.1582	0.1612
468.97 K, m1 = 0.1	0.1454	0.1477	0.15
473.25 K, m1 = 0.1	0.1421	0.1467	0.149
475.55 K, m1 = 0.28	0.15	0.1528	0.1555
476.95 K, m1 = 0.885	0.1885	0.192	0.1956
479.55 K, m1 = 0.56	0.1637	0.1668	0.1699
482.35 K, m1 = 0.1	0.1352	0.1378	0.1404
485.13 K, m1 = 0.885	0.1797	0.1835	–
